According to PubChem BioAssay AID1963978 (Molecular Pharmacology Branch, DTP, NCI, 2024):

Tested on: 616215-338-R-J1-PDC spheroids with HUVEC/MSC, viability
Experiment: Anticancer human tumor 616215-338-R-J1-PDC patient-derived colon adenocarcinoma cell line growth inhibition [PI3K]
Conditions: for IC50: curve of first compound; for viability, T/C: stronger effect = lower value
Outline: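 High-throughput combination screen: PI3K inhibitors crossed with targeted small molecules on complex spheroids of tumor cells, HUVEC and MSCs at 37 degrees C, 5% CO2. Top concentration was at or near clinical Cmax (otherwise 10 microM), with half-log decrements.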
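Note: spheroids exposed to agents for seven days before the viability read.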

With `C[C@@H](NC(=O)c1ncnc(N)c1Cl)c1ncc(C(=O)Nc2cc(C(F)(F)F)c(Cl)cn2)s1` + CC(Nc1ccc2c(c1)OCCn1cc(N3C(=O)OCC3C(F)F)nc1-2)C(N)=O the IC50 (second compound 0.00316 µM) was > 10 µM, the IC50 (second compound 0.01 µM) was > 10 µM and the IC50 (second compound 0.0316 µM) was > 10 µM. For the same compound, the IC50 (second compound 0.1 µM) was > 10 µM, the IC50 (second compound 0.316 µM) was > 10 µM and the IC50 (second compound 1 µM) was 7.36 µM. It also gave a viability, T/C (second compound 0.00316 µM, first compound 0.0316 µM) of 103%, a viability, T/C (second compound 0.00316 µM, first compound 0.1 µM) of 101% and a viability, T/C (second compound 0.00316 µM, first compound 0.316 µM) of 107%. It also gave a viability, T/C (second compound 0.00316 µM, first compound 1 µM) of 106%, a viability, T/C (second compound 0.00316 µM, first compound 3.16 µM) of 96.5% and a viability, T/C (second compound 0.00316 µM, first compound 10 µM) of 88.7%. The viability, T/C (second compound 0.01 µM, first compound 0.0316 µM) was 102%, the viability, T/C (second compound 0.01 µM, first compound 0.1 µM) was 109% and the viability, T/C (second compound 0.01 µM, first compound 0.316 µM) was 98.1%. The viability, T/C (second compound 0.01 µM, first compound 1 µM) was 104%, the viability, T/C (second compound 0.01 µM, first compound 3.16 µM) was 93.3% and the viability, T/C (second compound 0.01 µM, first compound 10 µM) was 74.8%. For the same compound, the viability, T/C (second compound 0.0316 µM, first compound 0.0316 µM) was 95.5%, the viability, T/C (second compound 0.0316 µM, first compound 0.1 µM) was 104% and the viability, T/C (second compound 0.0316 µM, first compound 0.316 µM) was 101%. For the same compound, the viability, T/C (second compound 0.0316 µM, first compound 1 µM) was 103%, the viability, T/C (second compound 0.0316 µM, first compound 3.16 µM) was 115% and the viability, T/C (second compound 0.0316 µM, first compound 10 µM) was 66%. The viability, T/C (second compound 0.1 µM, first compound 0.0316 µM) was 100%, the viability, T/C (second compound 0.1 µM, first compound 0.1 µM) was 104% and the viability, T/C (second compound 0.1 µM, first compound 0.316 µM) was 115%. It also gave a viability, T/C (second compound 0.1 µM, first compound 1 µM) of 102%, a viability, T/C (second compound 0.1 µM, first compound 3.16 µM) of 99.5% and a viability, T/C (second compound 0.1 µM, first compound 10 µM) of 65.7%. The viability, T/C (second compound 0.316 µM, first compound 0.0316 µM) was 121%, the viability, T/C (second compound 0.316 µM, first compound 0.1 µM) was 99% and the viability, T/C (second compound 0.316 µM, first compound 0.316 µM) was 94.8%. It also gave a viability, T/C (second compound 0.316 µM, first compound 1 µM) of 98.6%, a viability, T/C (second compound 0.316 µM, first compound 3.16 µM) of 85.6% and a viability, T/C (second compound 0.316 µM, first compound 10 µM) of 60.6%. It also gave a viability, T/C (second compound 1 µM, first compound 0.0316 µM) of 101%, a viability, T/C (second compound 1 µM, first compound 0.1 µM) of 95.7% and a viability, T/C (second compound 1 µM, first compound 0.316 µM) of 88.1%. The viability, T/C (second compound 1 µM, first compound 1 µM) was 98%, the viability, T/C (second compound 1 µM, first compound 3.16 µM) was 73.7% and the viability, T/C (second compound 1 µM, first compound 10 µM) was 41.4%.
